From patent US20130209441A1, “PROCESS FOR INHIBITION OF CEREBRAL DAMAGE ASSOCIATED WITH ISCHEMIA BY ANTHOCYANINS AND ANTHOCYANIDINS” (priority 2012, published 2013)

How the values were obtained:
pMCAO mice = assay: Mouse model of permanent middle cerebral artery occlusion (pMCAO): infarct volume (TTC staining) and 18-point neurological score at 24 h; format: in vivo; settings: 24 h after pMCAO, vs vehicle
Description: C3G is isolated from Prunus cerasus fruits as previously described is dissolved in 0.9% normal saline (NS) and is administered by oral gavage to mice at 1-h before induction of pMCAO. Mice are randomly distributed into […] and treated with vehicle (n=10), or 1 mg/kg (n=8), 2 mg/kg (n=10), and 5 mg/kg (n=9) of C3G. The doses chosen in the present study are based on previous reports. Animals are euthanized at 24 h following pMCAO and infarct volumes are determined.
To evaluate the effect of a delayed treatment at 3 h following pMCAO, mice are randomly assigned to vehicle (n=11), or 2 mg/kg of C3G administered orally at 3 h after pMCAO supplemented by two additional doses of 2 mg/kg of C3G 3 h apart. […] Animals are euthanized at 24 h following pMCAO and infarct volumes and neurological outcomes are determined.
Neurological assessment of experimental mice is performed according to an 18 point-based scale at 1 h before induction of pMCAO and at 24 h following surgery. Brains are immediately removed following neurological assessment, rinsed in cold saline solution, cut into 1-mm-thick coronal sections, and processed for 2% 2,3,5-triphenylterazolium chloride (TTC) staining as previously described. The infarct volumes from individual sections are then summed to determine the total brain infarct volume and adjusted for edema (corrected infarct volume).
All data are expressed as mean values±S.E.M. The degree of statistical significance between groups is determined on the basis of Student t-test, One-way ANOVA test, followed by post hoc Fisher LSD test, and Kruskal-Wallis rank test. SigmaStat 3.0 software (SYSTAT Software Inc., Point Richmond, Calif.) is used to carry out the analysis. Statistical significance is defined at p<0.05.

superoxide = assay: In situ detection of brain superoxide by dihydroethidium (DHE) fluorescence in pMCAO mice; format: in vivo, mouse; settings: pretreatment 2 mg/kg orally; 24 h after pMCAO; vs vehicle, p<0.05
Description: Measurement of superoxide is performed in situ by superoxide-selective oxidative fluorescent dye dihydroethidium cell membranes (DHE) as previously described in [3]. DHE is freely permeable across cell membranes and fluoresces red when oxidized to ethidium bromide by superoxide. Unfixed frozen brain sections (30 um) are placed on glass slides and submerged in 10^−6 mol/L DHE (Sigma) in phosphate buffered saline (PBS) buffer, pH 7.4 and incubated at 37° C. for 30 min in a dark humidified container. Fluorescence in ischemic regions of brain sections is then detected by a Zeiss 210 confocal microscope with a 590-nn long-pass filter. The intensity of the fluorescence is analyzed and quantified by densitometry (NIH Image software, version 1.37). The study included three groups (sham-operated, pMCAO with vehicle-treated, and pMCAO with 2 mg/kg of CG-treated mice; (n=4). Four brain sections of each mouse and five fields in each section are measured to calculate mean levels of the brain superoxide. Mitochondria are prepared from adult mouse brains (6-8 weeks old) by using the Percoll gradient method, as previously described. After decapitation, the brain is quickly removed and washed in the isolation buffer (300 mM sucrose, 0.1 mM EGTA, 10 mM HEPES, pH 7.4). The brain is homogenized in 15 ml of buffer by using hand-held glass Potter-Elvehjem homogenizer with PTFE pestle. […]

[1] = tested on: cyt c release from isolated mitochondria; assay: Cyt c release from isolated mouse brain mitochondria (immunoblot of supernatant); format: biochemical; settings: for cyt c release in response to Ca2+: Ca2+ 100 μM stimulation
Description: Measurement of superoxide is performed in situ by superoxide-selective oxidative fluorescent dye dihydroethidium cell membranes (DHE) as previously described in [3]. DHE is freely permeable across cell membranes and fluoresces red when oxidized to ethidium bromide by superoxide. Unfixed frozen brain sections (30 um) are placed on glass slides and submerged in 10^−6 mol/L DHE (Sigma) in phosphate buffered saline (PBS) buffer, pH 7.4 and incubated at 37° C. for 30 min in a dark humidified container. Fluorescence in ischemic regions of brain sections is then detected by a Zeiss 210 confocal microscope with a 590-nn long-pass filter. The intensity of the fluorescence is analyzed and quantified by densitometry (NIH Image software, version 1.37). The study included three groups (sham-operated, pMCAO with vehicle-treated, and pMCAO with 2 mg/kg of CG-treated mice; (n=4). Four brain sections of each mouse and five fields in each section are measured to calculate mean levels of the brain superoxide. Mitochondria are prepared from adult mouse brains (6-8 weeks old) by using the Percoll gradient method, as previously described. After decapitation, the brain is quickly removed and washed in the isolation buffer (300 mM sucrose, 0.1 mM EGTA, 10 mM HEPES, pH 7.4). The brain is homogenized in 15 ml of buffer by using hand-held glass Potter-Elvehjem homogenizer with PTFE pestle. After 5 strokes, the cell debris and nuclei are centrifuged at 1330×g for 5 min. The supernatant is further centrifuged at 21,200×g for 10 min. Mitochondrial fraction is resuspended in 15% Percoll solution diluted in the isolation buffer and layered on top of a discontinuous Percoll gradient of 25/40%. The density gradient is centrifuged at 30,700×g for 10 min and mitochondria are collected from the interface between 25 and 40% Percoll solution, transferred to a new tube, and washed in 10 mL of isolation buffer by centrifugation at 6700×g for 10 min. The resulting pellet is suspended in the isolation buffer without EGTA and further diluted to 2 mg/mL in assay buffer for the cyt c release assay. 50 μL of mitochondria are then mixed with buffer or reagents in a final reaction volume of […].
The assay buffer contains 125 mM KCI, 2 mM KH2PO4, 4 mM MgCl2 at pH 7.4, and 3 mM ATP, 0.8 mM ADP, 5 mM succinate and 2 μM rotenone for respiration. Mitochondrial suspensions diluted in the assay buffer are exposed to Ca^2+ (100 μM), S-nitrosoglutathione (GS—NO, 50 μM for nitric oxide generation) or H2O2 (50 μM for oxidative stress) in 10 min and centrifuged sat 12,000×g in 5 min. The supernatant is collected and 15 μL of aliquots are run on a SDS-PAGE gel to detect the release of cyt c by the immunoblotting assay. […]

[2] = tested on: AIF release from isolated mitochondria; assay: AIF release from isolated mouse brain mitochondria; format: biochemical; settings: compound 100 μM
Description: Mitochondria are prepared from mouse brains using flowing differential centrifugation procedures at 4° C. described previously. Homogenation buffer (50 μl) containing the prepared mitochondrial pellet is incubated with 25 μl of C3G at the desired concentration and the buffer added to achieve the final volume of 100 μl. The AIF release is then assessed in the presence of 100 μM of C3G in response to stimulation by GS-NO (50 μM) and H2O2 (50 μM).

## OC[C@H]1O[C@@H](Oc2cc3c(O)cc(O)cc3[o+]c2-c2ccc(O)c(O)c2)[C@H](O)[C@@H](O)[C@@H]1O [C3G, cyanidin-3-O-glucoside]
pMCAO mice; 2 mg/kg oral gavage 1 h before pMCAO
  reduction of infarct volume: 27%
pMCAO mice; 5 mg/kg oral gavage 1 h before pMCAO
  reduction of infarct volume: 30%
pMCAO mice; delayed treatment: 2 mg/kg orally at 3 h after pMCAO plus two additional 2 mg/kg doses 3 h apart
  reduction in infarct size: 25%
pMCAO mice; pretreatment 2 mg/kg orally
  neurological performance (18-point score): statistically significant better neurological performance
pMCAO mice; pretreatment 5 mg/kg orally
  neurological performance (18-point score): statistically significant better neurological performance
pMCAO mice; treatment 2 mg/kg orally at 3 h after onset of ischemia plus two additional doses
  neurological functional performance (18-point score): significantly better
superoxide
  fluorescent density of brain superoxide in situ: significantly suppressed
[1]; compound 1 μM
  cyt c release in response to Ca2+: no effect
[1]; compound 100 μM
  cyt c release in response to Ca2+: did not prevent
[1]; GS-NO 50 μM oxidative stress, compound 100 μM
  cyt c release in response to GS-NO: did not prevent
[1]; H2O2 50 μM oxidative stress, compound 100 μM
  cyt c release in response to H2O2: did not prevent
[2]; GS-NO 50 μM stimulation
  AIF release in response to GS-NO: partially prevented
[2]; H2O2 50 μM stimulation
  AIF release in response to H2O2: partially prevented
